This note sets out measurements from US11458138B2 (Novartis AG, priority 2017, dated 2022).

In assay [1] the target is LATS1 (Homo sapiens (Human), UniProt O95835). As to the kind of experiment: LATS1 biochemical assay (Table 1A, Compound Examples 1-290; method in the earlier part).
The subject of assay [2] is YAP nuclear translocation in HaCaT cells. As to the kind of experiment: YAP Translocation Assay (HaCaT Cells). Type of assay: cell-based, human. The settings on record: Homo sapiens, 24 hours. How it is done:
HaCaT cells were suspended at 0.4×10^6 cells/ml in DMEM+10% FBS with penicillin-streptomycin-glutamine. 50 μl of cells were dispensed into 384-well clear bottom assay plates (20,000 cells/well), and incubated overnight at 37° C. 100 nL test compound was transferred into the assay wells containing HaCaT cells using ECHO (Labcyte). After 24 hours incubation at 37° C., 7 μL of 32% PFA was dispensed into each well and incubated for 45 minutes at room temperature. Plates were washed 3 times with PBS, leaving 20 μL of PBS per well, then treated with 0.1% Triton and 1.5% BSA in PBS for 45 minutes at room temperature. Plates were washed for 5 times with PBS, leaving 20 μL of PBS per well. […] Plates were further washed 3 time with PBS, sealed and imaged on the high-content Opera imaging system (PerkinElmer).

LATS1, sequence (O95835 whole entry, looked up): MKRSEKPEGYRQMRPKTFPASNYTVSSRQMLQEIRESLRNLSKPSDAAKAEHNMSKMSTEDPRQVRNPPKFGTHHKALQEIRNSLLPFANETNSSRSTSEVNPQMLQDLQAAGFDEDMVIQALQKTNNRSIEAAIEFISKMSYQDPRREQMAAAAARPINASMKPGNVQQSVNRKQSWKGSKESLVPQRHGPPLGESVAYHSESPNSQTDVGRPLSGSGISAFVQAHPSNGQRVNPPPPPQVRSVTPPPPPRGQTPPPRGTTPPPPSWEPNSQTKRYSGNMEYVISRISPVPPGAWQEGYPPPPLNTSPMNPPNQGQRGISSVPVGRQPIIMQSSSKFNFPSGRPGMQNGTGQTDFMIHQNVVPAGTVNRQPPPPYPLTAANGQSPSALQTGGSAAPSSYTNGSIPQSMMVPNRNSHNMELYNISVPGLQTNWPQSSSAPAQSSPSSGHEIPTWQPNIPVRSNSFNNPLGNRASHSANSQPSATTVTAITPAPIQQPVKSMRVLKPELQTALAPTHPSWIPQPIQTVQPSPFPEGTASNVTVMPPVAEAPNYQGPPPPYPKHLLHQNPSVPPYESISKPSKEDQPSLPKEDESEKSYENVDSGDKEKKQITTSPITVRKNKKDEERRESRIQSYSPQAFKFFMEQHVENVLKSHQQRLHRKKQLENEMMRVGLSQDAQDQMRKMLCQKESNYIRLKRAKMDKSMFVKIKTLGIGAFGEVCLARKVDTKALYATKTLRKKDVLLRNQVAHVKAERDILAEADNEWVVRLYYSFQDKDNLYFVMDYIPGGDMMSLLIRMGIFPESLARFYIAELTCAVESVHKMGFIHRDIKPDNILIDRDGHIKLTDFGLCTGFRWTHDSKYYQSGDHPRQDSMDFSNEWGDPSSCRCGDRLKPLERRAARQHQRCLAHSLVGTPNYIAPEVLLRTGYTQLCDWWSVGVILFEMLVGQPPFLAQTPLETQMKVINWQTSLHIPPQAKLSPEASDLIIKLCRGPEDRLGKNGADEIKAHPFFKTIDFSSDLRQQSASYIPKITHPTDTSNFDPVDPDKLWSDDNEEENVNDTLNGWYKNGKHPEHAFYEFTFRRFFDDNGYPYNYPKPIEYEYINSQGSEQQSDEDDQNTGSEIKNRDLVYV
LATS1, sequence (Q7L9L4 whole entry partner, looked up): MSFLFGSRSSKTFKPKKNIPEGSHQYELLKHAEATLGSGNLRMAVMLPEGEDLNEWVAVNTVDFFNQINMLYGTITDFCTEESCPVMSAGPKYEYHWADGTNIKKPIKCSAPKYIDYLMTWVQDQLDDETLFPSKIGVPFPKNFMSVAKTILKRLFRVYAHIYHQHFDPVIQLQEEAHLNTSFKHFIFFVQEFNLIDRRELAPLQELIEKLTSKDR

What is called IC50 is the concentration that gives 50% inhibition. Broadly, the EC50 is the concentration giving half of the maximal effect. A lower EC50 goes with greater potency. In assay [1], `CC(C)(O)COCC(C)(C)Nc1nc(-c2c[nH]nc2C(F)(F)F)nc2cnccc12` [Example 121, 2-methyl-1-[2-methyl-2-({2-[3-(trifluoromethyl)-1H-pyrazol-4-yl]pyrido[3,4-d]pyrimidin-4-yl}amino)propoxy]propan-2-ol] registered an IC50 of 14 nM. In assay [2], this compound displayed an EC50 of 8170 nM.

Regarding `CC(C)(O)CC(C)(C)Nc1nc(-c2ccncc2Cl)nc2cnccc12` [Example 125, 4-{[2-(3-chloropyridin-4-yl)pyrido[3,4-d]pyrimidin-4-yl]amino}-2,4-dimethylpentan-2-ol], the IC50 in assay [1] amounted to 23 nM. The same compound had an EC50 in assay [2] of 8000 nM.

`Clc1cnccc1-c1nc(NC2CCCC2)c2ccncc2n1` [Example 126, 2-(3-chloropyridin-4-yl)-N-cyclopentylpyrido[3,4-d]pyrimidin-4-amine] had a half-maximal inhibitory concentration (IC50) in assay [1] of 53 nM. Besides, the EC50 in assay [2] is over 20000 nM.

Turning to `CC(C)(O)COCC(C)(C)Nc1nc(-c2ccncc2Cl)nc2cnccc12` [Example 127, 1-(2-{[2-(3-chloropyridin-4-yl)pyrido[3,4-d]pyrimidin-4-yl]amino}-2-methylpropoxy)-2-methylpropan-2-ol], in assay [1], the IC50 stood at 55 nM. Moreover, in assay [2], the EC50 was over 20000 nM.

In turn, `Cc1cnccc1-c1nc(N(C)C(C)C)c2ccncc2n1` [Example 128, N-methyl-2-(3-methylpyridin-4-yl)-N-(propan-2-yl)pyrido[3,4-d]pyrimidin-4-amine] displayed an IC50 in assay [1] of 77 nM. This compound also registered an EC50 in assay [2] of over 20000 nM.

In the case of `CC(C)(CCS(C)(=O)=O)Nc1nc(-c2ccncc2Cl)nc2cnccc12` [Example 129, 2-(3-chloropyridin-4-yl)-N-(4-methanesulfonyl-2-methylbutan-2-yl)pyrido[3,4-d]pyrimidin-4-amine], the half-maximal inhibitory concentration (IC50) in assay [1] turned out to be 187 nM. Besides, in assay [2], the EC50 was over 20000 nM.

On to `CC(C)(C)Nc1nc(-c2ccncc2C(F)(F)F)nc2cnccc12` [Example 130, N-tert-butyl-2-[3-(trifluoromethyl)pyridin-4-yl]pyrido[3,4-d]pyrimidin-4-amine], for which inhibition in assay [1] was half-maximal at 1150 nM (IC50). The compound further yielded a half-maximal effective concentration (EC50) in assay [2] of over 20000 nM.

For the compound `CC(C)(C)Nc1nc(-c2cc(Cl)ncc2C(F)(F)F)nc2cnccc12` [Example 131, N-tert-butyl-2-[2-chloro-5-(trifluoromethyl)pyridin-4-yl]pyrido[3,4-d]pyrimidin-4-amine], the IC50 in assay [1] was over 833 nM. The concentration giving a half-maximal response (EC50) in assay [2] is over 20000 nM.

`Clc1cnccc1-c1nc(NCCCc2nnn[nH]2)c2ccncc2n1` [Example 132, 2-(3-chloropyridin-4-yl)-N-[3-(1H-1,2,3,4-tetrazol-5-yl)propyl]pyrido[3,4-d]pyrimidin-4-amine] had a concentration for half-maximal inhibition (IC50) in assay [1] of over 2500 nM. In assay [2], the EC50 is over 20000 nM.

On to `CC(C)(O)CC(C)(C)Nc1nc(-c2ccncc2C#N)nc2cnccc12` [Example 146, 4-{4-[(4-hydroxy-2,4-dimethylpentan-2-yl)amino]pyrido[3,4-d]pyrimidin-2-yl}pyridine-3-carbonitrile], for which the IC50 in assay [1] was found to be 33 nM. This compound gave an EC50 in assay [2] of over 20000 nM.

In the case of `CC1(Nc2nc(-c3ccnc(F)c3F)nc3cnccc23)CC1` [Example 148, 2-(2,3-difluoropyridin-4-yl)-N-(1-methylcyclopropyl)pyrido[3,4-d]pyrimidin-4-amine], inhibition in assay [1] was half-maximal at 168 nM (IC50). This compound also showed a half-maximal effective concentration (EC50) in assay [2] of over 20000 nM.

Consider `CC1(Nc2nc(-c3cnoc3)nc3cnccc23)CC1` [Example 152, N-(1-methylcyclopropyl)-2-(1,2-oxazol-4-yl)pyrido[3,4-d]pyrimidin-4-amine], for which, in assay [1], the IC50 is over 2500 nM. For the same compound, the concentration for a half-maximal effect (EC50) in assay [2] is over 20000 nM.

In assay [1], `CCCNc1nc(-c2ccncc2Cl)nc2cnccc12` [Example 162, 2-(3-chloropyridin-4-yl)-N-propylpyrido[3,4-d]pyrimidin-4-amine] gave an IC50 of 49 nM. In addition, in assay [2], the EC50 is over 20000 nM.

In assay [1], `CCCNc1nc(-c2c[nH]nc2C2CC2)nc2cnccc12` [Example 163, 2-(3-cyclopropyl-1H-pyrazol-4-yl)-N-propylpyrido[3,4-d]pyrimidin-4-amine] yielded an IC50 of 51 nM. For the same compound, in assay [2], the EC50 is over 20000 nM.

As for `CCCNc1nc(-c2ccncc2C)nc2cnccc12` [Example 164, 2-(3-methylpyridin-4-yl)-N-propylpyrido[3,4-d]pyrimidin-4-amine], in assay [1], the IC50 came to 159 nM. The compound also registered a concentration giving a half-maximal response (EC50) in assay [2] of over 20000 nM.

In turn, `CCCNc1nc(-c2cn(C)c3ncccc23)nc2cnccc12` [Example 165, 2-{1-methyl-1H-pyrrolo[2,3-b]pyridin-3-yl}-N-propylpyrido[3,4-d]pyrimidin-4-amine] yielded an IC50 in assay [1] of over 2500 nM. The compound also came in with a concentration giving a half-maximal response (EC50) in assay [2] of over 20000 nM.

Compound `CC(C)(O)CC(C)(C)Nc1nc(-c2cn[nH]c2)nc2cnccc12` [Example 166, 2,4-dimethyl-4-{[2-(1H-pyrazol-4-yl)pyrido[3,4-d]pyrimidin-4-yl]amino}pentan-2-ol] gave an IC50 in assay [1] of 14 nM. In addition, the midpoint of the response in assay [2], the EC50, lay at 8450 nM.

Consider `C[C@@H](Nc1nc(-c2cn[nH]c2)nc2cnccc12)c1ccccc1` [Example 167, N-[(1R)-1-phenylethyl]-2-(1H-pyrazol-4-yl)pyrido[3,4-d]pyrimidin-4-amine], for which the IC50 in assay [1] was found to be 143 nM. The same compound had an EC50 in assay [2] of over 20000 nM.

`CN(c1nc(-c2cn[nH]c2)nc2cnccc12)C1(C)CC1` [Example 171, N-methyl-N-(1-methylcyclopropyl)-2-(1H-pyrazol-4-yl)pyrido[3,4-d]pyrimidin-4-amine]: the concentration for half-maximal inhibition (IC50) in assay [1] came to 54 nM. In addition, in assay [2], the concentration giving a half-maximal response (EC50) is 17200 nM.

The compound `CCn1nccc1-c1nc(NC2(C)CC2)c2ccncc2n1` [Example 173, 2-(1-ethyl-1H-pyrazol-5-yl)-N-(1-methylcyclopropyl)pyrido[3,4-d]pyrimidin-4-amine] yielded a concentration for half-maximal inhibition (IC50) in assay [1] of 61 nM. The compound further registered a half-maximal effective concentration (EC50) in assay [2] of over 20000 nM.

`CC1(Nc2nc(-c3ccn[nH]3)nc3cnccc23)CC1` [Example 176, N-(1-methylcyclopropyl)-2-(1H-pyrazol-5-yl)pyrido[3,4-d]pyrimidin-4-amine] had an IC50 in assay [1] of over 2500 nM. The half-maximal effective concentration (EC50) in assay [2] was over 20000 nM.

`CC1(Nc2nc(-c3cnc[nH]3)nc3cnccc23)CC1` [Example 177, 2-(1H-imidazol-5-yl)-N-(1-methylcyclopropyl)pyrido[3,4-d]pyrimidin-4-amine]: the 50% inhibitory concentration (IC50) in assay [1] was over 2500 nM. In addition, the EC50 in assay [2] is over 20000 nM.

For `Cn1cncc1-c1nc(NC2(C)CC2)c2ccncc2n1` [Example 178, 2-(1-methyl-1H-imidazol-5-yl)-N-(1-methylcyclopropyl)pyrido[3,4-d]pyrimidin-4-amine], in assay [1], the IC50 was over 2500 nM. This compound also came in with an EC50 in assay [2] of over 20000 nM.

The compound `Cc1cc(-c2nc(NC3(C)CC3)c3ccncc3n2)on1` [Example 181, 2-(3-methyl-1,2-oxazol-5-yl)-N-(1-methylcyclopropyl)pyrido[3,4-d]pyrimidin-4-amine] came in with an IC50 in assay [1] of 9000 nM. The compound also returned a half-maximal effective concentration (EC50) in assay [2] of over 10000 nM.

`CC1(Nc2nc(-c3nn[nH]n3)nc3cnccc23)CC1` [Example 182, N-(1-methylcyclopropyl)-2-(2H-1,2,3,4-tetrazol-5-yl)pyrido[3,4-d]pyrimidin-4-amine] gave a 50% inhibitory concentration (IC50) in assay [1] of over 10000 nM. This compound also came in with an EC50 in assay [2] of over 20000 nM.

In assay [1], `CC(Nc1nc(-c2cn[nH]c2)nc2cnccc12)c1ccncc1` (centres unmarked) [Example 183, 2-(1H-pyrazol-4-yl)-N-[1-(pyridin-4-yl)ethyl]pyrido[3,4-d]pyrimidin-4-amine] registered an IC50 of 797 nM. Further, in assay [2], the EC50 was over 20000 nM.

In assay [1], `Cc1n[nH]cc1-c1nc(NC2(CO)CCC2)c2ccncc2n1` [Example 185, (1-{[2-(3-methyl-1H-pyrazol-4-yl)pyrido[3,4-d]pyrimidin-4-yl]amino}cyclobutyl)methanol] came in with a half-maximal inhibitory concentration (IC50) of 9 nM. The compound further yielded an EC50 in assay [2] of 11500 nM.

Compound `Cn1nccc1-c1nc(NC2(C(F)(F)F)CC2)c2ccncc2n1` [Example 189, 2-(1-methyl-1H-pyrazol-5-yl)-N-[1-(trifluoromethyl)cyclopropyl]pyrido[3,4-d]pyrimidin-4-amine] registered a half-maximal inhibitory concentration (IC50) in assay [1] of 83 nM. The same compound gave a half-maximal effective concentration (EC50) in assay [2] of over 10000 nM.

Take `Cc1n[nH]cc1-c1nc(NC(C)c2ccncc2)c2ccncc2n1` (centres unmarked) [Example 190, 2-(3-methyl-1H-pyrazol-4-yl)-N-[1-(pyridin-4-yl)ethyl]pyrido[3,4-d]pyrimidin-4-amine]: the IC50 in assay [1] came to 99 nM. For the same compound, the EC50 in assay [2] was over 20000 nM.

`CC(C)N(C)c1cc(-c2ccncc2)nc2cnccc12` [Example 259, N-methyl-N-(propan-2-yl)-2-(pyridin-4-yl)-1,7-naphthyridin-4-amine]: the concentration for half-maximal inhibition (IC50) in assay [1] amounted to 61 nM. For the same compound, the concentration for a half-maximal effect (EC50) in assay [2] came to 17300 nM.

In assay [1], `CC(C)(CCO)Nc1cc(-c2ccncc2)nc2cnccc12` [Example 260, 3-methyl-3-{[2-(pyridin-4-yl)-1,7-naphthyridin-4-yl]amino}butan-1-ol] registered a 50% inhibitory concentration (IC50) of 459 nM. The compound also registered a concentration giving a half-maximal response (EC50) in assay [2] of over 20000 nM.

`CC1(C)CC(O)CCN1c1cc(-c2ccncc2)nc2cnccc12` (centres unmarked) [Example 262, 2,2-dimethyl-1-[2-(pyridin-4-yl)-1,7-naphthyridin-4-yl]piperidin-4-ol] returned a concentration for half-maximal inhibition (IC50) in assay [1] of 3 nM. Further, the concentration for a half-maximal effect (EC50) in assay [2] is 311 nM.

Turning to `CCN(CC)c1cc(-c2ccncc2)nc2cnccc12` [Example 266, N,N-diethyl-2-(pyridin-4-yl)-1,7-naphthyridin-4-amine], half-maximal inhibition in assay [1] (IC50) was put at 9 nM. The response in assay [2] was half-maximal at 5350 nM (EC50).

For the compound `CC(C)N(C)c1cc(-c2ccncc2F)nc2cnccc12` [Example 277, 2-(3-fluoropyridin-4-yl)-N-methyl-N-(propan-2-yl)-1,7-naphthyridin-4-amine], in assay [1], the 50% inhibitory concentration (IC50) worked out at 65 nM. Besides, the EC50 in assay [2] is over 20000 nM.
